We go through four compounds from ChEMBL document CHEMBL1201862, “PubChem BioAssay data set” (2004).

Active and inactive are the calls of the source.

For test [1], the target named is Delta-type opioid receptor (Homo sapiens, UniProt P41143). In words: Counterscreen for agonists of heterodimerization of the mu 1 (OPRM1) and delta 1 (OPRD1) opioid receptors: Luminescence-based cell-based high throughput dose response assay to identify agonists of OPRD1 homodimerization. [Related pubchem assays (depositor defined):AID504326, AID504355, AID504692, AID504904, AID504905]. The test is classed as functional.
Sequence of Delta-type opioid receptor (P41143 whole entry): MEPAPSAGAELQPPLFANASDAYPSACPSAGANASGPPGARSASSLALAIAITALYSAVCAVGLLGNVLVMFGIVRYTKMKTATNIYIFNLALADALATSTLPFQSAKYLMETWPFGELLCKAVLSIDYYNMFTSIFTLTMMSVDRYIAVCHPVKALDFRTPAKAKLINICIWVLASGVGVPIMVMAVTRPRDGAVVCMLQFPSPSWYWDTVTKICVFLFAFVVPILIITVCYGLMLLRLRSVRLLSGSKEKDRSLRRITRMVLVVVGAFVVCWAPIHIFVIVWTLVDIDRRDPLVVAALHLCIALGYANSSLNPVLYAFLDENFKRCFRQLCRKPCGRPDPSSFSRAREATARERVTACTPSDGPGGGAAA

The target in test [2] is Mu-type opioid receptor (Homo sapiens, UniProt P35372). In words: Counterscreen for agonists of heterodimerization of the mu 1 (OPRM1) and delta 1 (OPRD1) opioid receptors: Luminescence-based cell-based high throughput dose response assay to identify agonists of OPRM1 homodimerization. Format: functional.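 Further: U2OS cells expressing OPRM1 and beta-arrestin as split beta-galactosidase partners.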
Sequence of Mu-type opioid receptor (P35372 whole entry): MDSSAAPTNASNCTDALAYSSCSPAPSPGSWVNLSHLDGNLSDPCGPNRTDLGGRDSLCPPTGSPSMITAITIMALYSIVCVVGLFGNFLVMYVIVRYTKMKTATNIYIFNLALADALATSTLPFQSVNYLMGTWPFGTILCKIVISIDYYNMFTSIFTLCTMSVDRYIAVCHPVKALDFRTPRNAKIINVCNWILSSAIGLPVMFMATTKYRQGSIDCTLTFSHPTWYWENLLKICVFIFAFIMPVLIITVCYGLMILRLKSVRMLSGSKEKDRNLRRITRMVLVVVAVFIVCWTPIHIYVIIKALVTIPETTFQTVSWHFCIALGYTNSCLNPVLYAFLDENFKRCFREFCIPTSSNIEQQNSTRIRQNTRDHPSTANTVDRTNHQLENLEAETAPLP
The target of test [3] is Opioid receptors; mu & delta (Homo sapiens, UniProt P41143+P35372). In words: OPRM1-OPRD1 heterodimer agonist potency – cell-based, luminescence, dose response (AID 588407). The test is classed as functional.
In test [4] the target is 5-hydroxytryptamine receptor 5A (Homo sapiens, UniProt P47898). In words: Counterscreen for agonists of OPRM1-OPRD1 heterodimerization: luminescence-based cell-based high throughput dose response assay to identify agonists of 5-hydroxytryptamine (serotonin) 5A receptor (HTR5A). [Related pubchem assays (depositor defined):AID504326, AID504355, AID504692, AID504904, AID504905]. The test is classed as functional. A general note: A counterscreen serves to expose hits that act by an unwanted route or on another target.
Sequence of 5-hydroxytryptamine receptor 5A (P47898 whole entry): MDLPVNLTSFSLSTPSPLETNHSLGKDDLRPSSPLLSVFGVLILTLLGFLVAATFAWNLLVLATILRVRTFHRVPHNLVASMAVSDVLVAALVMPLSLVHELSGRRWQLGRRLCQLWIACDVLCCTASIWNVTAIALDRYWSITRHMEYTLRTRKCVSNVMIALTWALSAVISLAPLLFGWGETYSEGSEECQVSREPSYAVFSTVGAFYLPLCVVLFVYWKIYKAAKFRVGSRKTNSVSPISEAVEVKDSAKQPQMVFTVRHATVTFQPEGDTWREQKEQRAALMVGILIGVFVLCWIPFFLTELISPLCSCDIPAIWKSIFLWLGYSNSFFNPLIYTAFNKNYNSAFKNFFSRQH

Test [5] concerns the target Glucose-6-phosphate 1-dehydrogenase (Homo sapiens, UniProt P11413). In words: inhibition of Homo sapiens G6PD, dose series – biochemical, fluorescence, selectivity assay for P. falciparum G6PD inhibitor project, dose response (AID 504792). Format: functional.
Test [6] addresses Beta-galactosidase (Escherichia coli, UniProt Q8VNN2). In words: detection-enzyme interference by beta-gal modulators – biochemical, E. coli enzyme, set 3, artefact control for CCR6 antagonist project, dose response (AID 504712). Format: functional.
Test [7] concerns the target Nonstructural protein 1 (Influenza A virus, UniProt Q194T2). Format: functional, Influenza A virus (A/California/07/2009(H1N1)).
Test [8] concerns the target T1, Hexokinase HKDC1 (Homo sapiens, UniProt Q2TB90).
T1 sequence (Q2TB90 whole entry): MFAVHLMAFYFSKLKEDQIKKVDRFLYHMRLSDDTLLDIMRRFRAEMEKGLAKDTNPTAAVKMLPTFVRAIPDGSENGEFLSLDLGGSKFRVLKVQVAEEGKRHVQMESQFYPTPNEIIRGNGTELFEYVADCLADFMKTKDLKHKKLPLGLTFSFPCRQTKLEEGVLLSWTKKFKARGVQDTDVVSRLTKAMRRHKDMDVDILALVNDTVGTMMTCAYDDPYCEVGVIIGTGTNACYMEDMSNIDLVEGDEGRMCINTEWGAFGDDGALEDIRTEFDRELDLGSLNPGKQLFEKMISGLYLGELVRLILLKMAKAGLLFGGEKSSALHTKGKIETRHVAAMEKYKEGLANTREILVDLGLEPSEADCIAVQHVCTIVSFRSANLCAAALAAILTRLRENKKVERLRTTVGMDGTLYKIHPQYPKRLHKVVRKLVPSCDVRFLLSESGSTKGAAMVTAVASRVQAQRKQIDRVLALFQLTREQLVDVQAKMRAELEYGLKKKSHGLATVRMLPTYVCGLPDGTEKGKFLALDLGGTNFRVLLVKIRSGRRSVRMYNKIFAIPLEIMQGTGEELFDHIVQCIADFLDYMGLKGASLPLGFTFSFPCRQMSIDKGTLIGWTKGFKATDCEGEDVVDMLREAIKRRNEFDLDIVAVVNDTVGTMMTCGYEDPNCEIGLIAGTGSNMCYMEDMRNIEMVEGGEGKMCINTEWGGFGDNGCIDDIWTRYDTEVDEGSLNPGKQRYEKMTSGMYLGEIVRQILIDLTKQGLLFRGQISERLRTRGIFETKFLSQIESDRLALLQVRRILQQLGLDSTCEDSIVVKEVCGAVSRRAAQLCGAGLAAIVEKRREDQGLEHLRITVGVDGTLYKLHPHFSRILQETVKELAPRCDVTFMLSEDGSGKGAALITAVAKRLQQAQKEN
In words: inhibition of HKDC1 glucose phosphorylation – biochemical, W721R variant, dose response (AID 504729). Format: functional.

The subject of test [9] is Vero. In words: viability of Vero cells under compound – cytotoxicity control for flavivirus capping enzyme inhibitors (AID 588742). The following applies: Chlorocebus sabaeus. Format: functional.
Test [10] deals with Genome polyprotein (dengue virus type 2, UniProt P29990). In words: flavivirus cap methylation enzyme inhibition – biochemical, confirmation dose response, primary screen (AID 588689). Format: functional.
Sequence of Genome polyprotein (P29990 2492-3391 limits assumed): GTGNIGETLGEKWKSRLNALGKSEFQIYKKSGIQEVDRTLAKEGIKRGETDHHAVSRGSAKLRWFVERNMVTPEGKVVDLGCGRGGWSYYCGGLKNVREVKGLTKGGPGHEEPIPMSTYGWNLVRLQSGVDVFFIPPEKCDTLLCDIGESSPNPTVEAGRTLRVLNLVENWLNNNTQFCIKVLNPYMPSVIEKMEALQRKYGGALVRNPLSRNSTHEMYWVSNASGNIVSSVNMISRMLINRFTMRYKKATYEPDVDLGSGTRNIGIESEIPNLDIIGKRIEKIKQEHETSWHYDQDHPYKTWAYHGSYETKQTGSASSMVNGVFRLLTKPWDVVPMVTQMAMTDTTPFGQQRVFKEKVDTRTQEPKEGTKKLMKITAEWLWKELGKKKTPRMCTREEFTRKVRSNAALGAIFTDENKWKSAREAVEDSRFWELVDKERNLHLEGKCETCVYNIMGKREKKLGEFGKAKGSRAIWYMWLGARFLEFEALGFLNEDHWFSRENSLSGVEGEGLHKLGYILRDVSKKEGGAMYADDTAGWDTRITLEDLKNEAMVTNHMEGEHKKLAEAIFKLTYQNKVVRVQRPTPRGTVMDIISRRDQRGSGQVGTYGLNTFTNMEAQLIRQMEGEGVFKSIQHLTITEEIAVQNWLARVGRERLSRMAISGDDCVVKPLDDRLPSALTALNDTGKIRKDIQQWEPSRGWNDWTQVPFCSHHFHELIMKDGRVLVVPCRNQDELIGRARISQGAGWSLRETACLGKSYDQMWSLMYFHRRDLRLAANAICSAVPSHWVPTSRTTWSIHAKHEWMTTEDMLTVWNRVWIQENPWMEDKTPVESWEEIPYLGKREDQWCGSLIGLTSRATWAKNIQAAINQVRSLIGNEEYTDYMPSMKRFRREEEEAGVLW
Test [11] addresses T2, Histone-lysine N-methyltransferase NSD2 (Homo sapiens, UniProt O96028).
T2 sequence (O96028 whole entry): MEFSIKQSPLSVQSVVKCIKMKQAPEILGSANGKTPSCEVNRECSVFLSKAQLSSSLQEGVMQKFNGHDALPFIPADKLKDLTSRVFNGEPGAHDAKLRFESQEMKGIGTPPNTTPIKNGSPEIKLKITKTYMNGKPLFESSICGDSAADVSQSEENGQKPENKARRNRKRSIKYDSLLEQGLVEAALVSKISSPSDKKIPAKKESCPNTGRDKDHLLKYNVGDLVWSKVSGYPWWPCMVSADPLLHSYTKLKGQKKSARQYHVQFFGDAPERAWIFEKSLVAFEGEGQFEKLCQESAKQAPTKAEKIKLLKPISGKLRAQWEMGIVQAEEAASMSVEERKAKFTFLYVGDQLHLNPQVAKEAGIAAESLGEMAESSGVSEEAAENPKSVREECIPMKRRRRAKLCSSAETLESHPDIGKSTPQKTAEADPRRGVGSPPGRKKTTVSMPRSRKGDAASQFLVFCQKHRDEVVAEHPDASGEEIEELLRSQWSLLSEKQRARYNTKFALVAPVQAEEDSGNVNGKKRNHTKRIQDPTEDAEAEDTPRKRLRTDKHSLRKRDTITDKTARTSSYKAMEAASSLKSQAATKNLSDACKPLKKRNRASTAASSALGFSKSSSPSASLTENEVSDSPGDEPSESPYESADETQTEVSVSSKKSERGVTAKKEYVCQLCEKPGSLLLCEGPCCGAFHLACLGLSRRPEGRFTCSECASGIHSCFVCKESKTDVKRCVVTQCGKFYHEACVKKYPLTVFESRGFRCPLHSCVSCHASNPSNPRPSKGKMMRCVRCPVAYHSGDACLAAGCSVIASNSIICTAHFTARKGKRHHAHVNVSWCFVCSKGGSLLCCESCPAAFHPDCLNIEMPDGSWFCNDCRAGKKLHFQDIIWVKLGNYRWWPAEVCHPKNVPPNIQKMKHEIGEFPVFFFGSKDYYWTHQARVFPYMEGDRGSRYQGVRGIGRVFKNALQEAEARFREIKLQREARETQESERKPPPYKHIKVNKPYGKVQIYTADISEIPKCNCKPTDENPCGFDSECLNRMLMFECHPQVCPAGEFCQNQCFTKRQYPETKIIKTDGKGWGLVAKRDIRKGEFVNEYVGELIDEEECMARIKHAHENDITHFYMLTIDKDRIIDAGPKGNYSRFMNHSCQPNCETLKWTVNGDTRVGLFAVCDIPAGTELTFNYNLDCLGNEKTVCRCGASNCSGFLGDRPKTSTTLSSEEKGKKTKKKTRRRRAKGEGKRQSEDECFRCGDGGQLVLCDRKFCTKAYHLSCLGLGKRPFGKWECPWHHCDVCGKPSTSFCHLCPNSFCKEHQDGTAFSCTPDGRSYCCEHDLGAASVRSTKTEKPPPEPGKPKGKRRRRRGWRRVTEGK
Format: biochemical.

Test [12] can be described thus: viability loss in THP-1 monocytes – THP-1 cells, cytotoxicity control for Vif-APOBEC3G degradation inhibitor project, dose response (AID 1117359). Format: functional. The following applies: THP-1.
Test [13] concerns Escherichia coli. In words: microbe, parasite or virus in culture.
Test [14] relates to Escherichia coli. In words: microbe, parasite or virus in culture. The source holds these as a separate data set.
Test [15] addresses T3, RNA-binding protein pos-1 (Caenorhabditis elegans, UniProt G5EF15).
T3 sequence (G5EF15 whole entry): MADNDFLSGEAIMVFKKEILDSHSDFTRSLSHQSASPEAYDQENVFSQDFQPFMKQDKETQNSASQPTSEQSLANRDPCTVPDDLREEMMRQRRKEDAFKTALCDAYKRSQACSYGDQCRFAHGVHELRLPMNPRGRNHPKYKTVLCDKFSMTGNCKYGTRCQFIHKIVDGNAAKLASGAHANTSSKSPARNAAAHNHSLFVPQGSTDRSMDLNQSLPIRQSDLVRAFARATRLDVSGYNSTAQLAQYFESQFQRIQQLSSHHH
In words: disruptors of C. elegans POS-1 RNA interaction – biochemical, fluorescence polarization, dose response (AID 1964).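 Further: purified POS-1 fused to maltose binding protein made in E. coli; potency of compounds blocking POS-1 binding to fluorescent RNA.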 On the technique in general: In fluorescence polarisation assays a small probe gives low polarisation when free and higher when bound to something large.

The target in test [16] is T4, Zinc finger protein mex-5 (Caenorhabditis elegans, UniProt Q9XUB2).
T4 sequence (Q9XUB2 whole entry): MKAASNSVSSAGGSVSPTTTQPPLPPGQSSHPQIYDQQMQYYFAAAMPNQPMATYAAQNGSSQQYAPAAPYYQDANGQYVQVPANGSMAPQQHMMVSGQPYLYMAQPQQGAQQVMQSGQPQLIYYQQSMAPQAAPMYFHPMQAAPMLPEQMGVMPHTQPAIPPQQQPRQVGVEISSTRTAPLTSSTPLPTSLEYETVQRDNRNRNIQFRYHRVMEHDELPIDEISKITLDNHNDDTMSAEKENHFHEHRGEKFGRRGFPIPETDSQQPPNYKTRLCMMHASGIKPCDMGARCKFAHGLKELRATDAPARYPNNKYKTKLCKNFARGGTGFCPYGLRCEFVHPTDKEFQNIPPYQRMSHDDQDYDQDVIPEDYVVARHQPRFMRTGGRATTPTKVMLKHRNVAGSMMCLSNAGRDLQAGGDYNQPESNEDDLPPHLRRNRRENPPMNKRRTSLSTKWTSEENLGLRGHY
In words: potency of MEX-5 RNA-binding blockers – biochemical, C. elegans, fluorescence polarization, dose response (AID 1960).

Test [17] concerns the target T5, ORF 73 (Human herpesvirus 8, UniProt O40947).
T5 sequence (O40947 whole entry): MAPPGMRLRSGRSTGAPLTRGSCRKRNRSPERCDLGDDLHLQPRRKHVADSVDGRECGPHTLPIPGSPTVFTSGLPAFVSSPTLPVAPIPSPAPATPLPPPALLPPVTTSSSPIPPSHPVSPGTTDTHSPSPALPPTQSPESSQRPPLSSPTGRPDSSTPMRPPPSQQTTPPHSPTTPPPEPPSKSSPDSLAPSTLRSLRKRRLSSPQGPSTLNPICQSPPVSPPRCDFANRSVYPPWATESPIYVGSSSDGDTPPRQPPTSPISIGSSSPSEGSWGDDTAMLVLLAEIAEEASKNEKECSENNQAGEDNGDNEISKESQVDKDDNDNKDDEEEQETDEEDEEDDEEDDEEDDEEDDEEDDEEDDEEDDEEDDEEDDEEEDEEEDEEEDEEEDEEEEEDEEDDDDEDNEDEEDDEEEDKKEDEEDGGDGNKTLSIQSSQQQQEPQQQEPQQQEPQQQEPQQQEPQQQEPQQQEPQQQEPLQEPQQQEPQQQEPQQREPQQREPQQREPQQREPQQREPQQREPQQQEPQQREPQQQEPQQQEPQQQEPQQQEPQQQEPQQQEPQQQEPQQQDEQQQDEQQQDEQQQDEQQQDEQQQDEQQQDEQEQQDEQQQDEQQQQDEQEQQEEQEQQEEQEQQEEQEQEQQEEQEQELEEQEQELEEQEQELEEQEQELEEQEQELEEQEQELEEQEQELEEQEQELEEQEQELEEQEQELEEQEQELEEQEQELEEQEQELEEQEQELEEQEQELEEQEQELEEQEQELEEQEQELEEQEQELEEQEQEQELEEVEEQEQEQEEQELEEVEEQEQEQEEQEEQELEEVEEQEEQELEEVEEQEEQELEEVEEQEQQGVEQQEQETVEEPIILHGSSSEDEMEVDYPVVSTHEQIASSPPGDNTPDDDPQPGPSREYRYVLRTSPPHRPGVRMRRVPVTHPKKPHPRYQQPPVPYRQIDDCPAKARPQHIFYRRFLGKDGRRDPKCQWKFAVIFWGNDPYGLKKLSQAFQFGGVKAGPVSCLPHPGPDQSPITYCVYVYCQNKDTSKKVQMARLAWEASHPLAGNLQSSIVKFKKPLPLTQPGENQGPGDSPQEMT
In words: KSHV LANA DNA-binding disruption – biochemical, fluorescence polarization, cherry-picked samples, dose response (AID 504725).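 Further: fluorescence polarization of a labeled DNA duplex reporting LANA DNA binding; potency is for inhibitors that block LANA binding to the DNA.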 More on the design: species or system Human gammaherpesvirus 8.

Test [18] deals with UDP-galactopyranose mutase (Mycobacterium tuberculosis, UniProt P9WIQ1). In words: Inhibitors of Mycobacterium tuberculosis UDP-galactopyranose mutase (UGM) enzyme Measured in Biochemical System Using Plate Reader - 2105-02_Inhibitor_Dose_CherryPick_Activity. [Related pubchem assays (depositor defined):AID504439].
Sequence of UDP-galactopyranose mutase (P9WIQ1 whole entry): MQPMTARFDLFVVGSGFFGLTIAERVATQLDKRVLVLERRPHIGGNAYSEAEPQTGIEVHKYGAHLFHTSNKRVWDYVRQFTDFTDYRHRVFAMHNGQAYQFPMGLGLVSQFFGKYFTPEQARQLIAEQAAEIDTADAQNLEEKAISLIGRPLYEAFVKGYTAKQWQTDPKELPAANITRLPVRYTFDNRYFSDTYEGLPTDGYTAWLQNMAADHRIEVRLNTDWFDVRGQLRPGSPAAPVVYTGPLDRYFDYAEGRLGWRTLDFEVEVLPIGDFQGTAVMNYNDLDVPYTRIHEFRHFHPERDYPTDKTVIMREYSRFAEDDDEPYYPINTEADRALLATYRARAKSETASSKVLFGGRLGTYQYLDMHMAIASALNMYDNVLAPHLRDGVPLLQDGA

In general, EC50 refers to the concentration giving half of the maximal effect. The IC50 is the point on the concentration scale where inhibition reaches its midpoint. As usually defined, the CC50 is the concentration giving 50% cytotoxicity. As a reminder, the AC50 is the midpoint of the concentration-response curve, whichever way the signal moves.

Sequence of Glucose-6-phosphate 1-dehydrogenase (P11413 whole entry): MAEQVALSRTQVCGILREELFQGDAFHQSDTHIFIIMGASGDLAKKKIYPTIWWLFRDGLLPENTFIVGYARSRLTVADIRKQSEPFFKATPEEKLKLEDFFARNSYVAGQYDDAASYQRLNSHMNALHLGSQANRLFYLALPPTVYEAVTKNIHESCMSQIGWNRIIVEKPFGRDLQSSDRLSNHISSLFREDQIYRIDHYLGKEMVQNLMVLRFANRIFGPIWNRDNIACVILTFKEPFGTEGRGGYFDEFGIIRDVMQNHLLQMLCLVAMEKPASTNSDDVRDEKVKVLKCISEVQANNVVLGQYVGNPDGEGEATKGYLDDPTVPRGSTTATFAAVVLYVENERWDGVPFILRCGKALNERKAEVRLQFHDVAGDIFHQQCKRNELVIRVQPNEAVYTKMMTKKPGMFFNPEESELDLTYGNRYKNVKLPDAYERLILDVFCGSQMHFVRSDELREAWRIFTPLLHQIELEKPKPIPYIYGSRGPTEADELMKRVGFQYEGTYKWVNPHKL
Sequence of Nonstructural protein 1 (Q194T2 whole entry): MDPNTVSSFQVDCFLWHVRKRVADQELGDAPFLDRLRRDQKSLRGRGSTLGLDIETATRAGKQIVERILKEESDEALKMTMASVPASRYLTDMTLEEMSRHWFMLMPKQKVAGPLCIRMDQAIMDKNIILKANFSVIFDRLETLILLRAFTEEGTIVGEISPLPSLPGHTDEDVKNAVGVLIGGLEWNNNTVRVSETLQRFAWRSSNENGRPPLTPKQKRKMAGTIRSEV
Sequence of Beta-galactosidase (Q8VNN2 whole entry): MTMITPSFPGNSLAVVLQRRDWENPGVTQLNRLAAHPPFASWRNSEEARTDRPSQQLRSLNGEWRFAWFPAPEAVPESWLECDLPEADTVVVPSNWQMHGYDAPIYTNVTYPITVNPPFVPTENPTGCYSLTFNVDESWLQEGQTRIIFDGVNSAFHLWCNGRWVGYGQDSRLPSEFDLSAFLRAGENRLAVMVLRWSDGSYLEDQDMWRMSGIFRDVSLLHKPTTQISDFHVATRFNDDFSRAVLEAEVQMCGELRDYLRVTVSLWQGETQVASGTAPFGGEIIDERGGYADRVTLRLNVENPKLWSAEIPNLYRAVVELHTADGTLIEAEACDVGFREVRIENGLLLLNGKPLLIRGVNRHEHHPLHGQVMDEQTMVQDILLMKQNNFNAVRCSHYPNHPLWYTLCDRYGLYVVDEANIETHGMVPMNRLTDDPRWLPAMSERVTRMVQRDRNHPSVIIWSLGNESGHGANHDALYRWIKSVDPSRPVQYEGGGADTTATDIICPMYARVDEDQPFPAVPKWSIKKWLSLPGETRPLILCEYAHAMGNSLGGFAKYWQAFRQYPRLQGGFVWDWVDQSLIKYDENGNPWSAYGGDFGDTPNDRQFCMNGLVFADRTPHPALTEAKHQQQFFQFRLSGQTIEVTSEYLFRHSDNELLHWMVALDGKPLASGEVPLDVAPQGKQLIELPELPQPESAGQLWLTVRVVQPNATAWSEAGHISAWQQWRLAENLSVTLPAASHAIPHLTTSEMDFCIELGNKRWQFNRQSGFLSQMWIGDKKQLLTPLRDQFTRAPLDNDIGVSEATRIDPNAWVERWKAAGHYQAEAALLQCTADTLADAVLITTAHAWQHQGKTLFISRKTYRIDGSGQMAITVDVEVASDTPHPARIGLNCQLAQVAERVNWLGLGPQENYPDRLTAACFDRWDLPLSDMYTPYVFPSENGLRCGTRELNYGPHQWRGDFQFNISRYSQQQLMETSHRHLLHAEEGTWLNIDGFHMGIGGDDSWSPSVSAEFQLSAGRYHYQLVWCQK

With `COc1ccc(NC(=O)COc2ccccc2C(=O)NCC(c2ccccc2)N(C)C)cc1Cl` (stereo not drawn), the EC50 in test [1] is 9.79 µM (active); in [2], > 92.5 µM (inactive); in test [3], greater than 3.425 µM; in [4], > 92.5 µM (inactive).

Consider `CC1COCC(C)N1C1=C(Cl)C(=O)c2ccccc2C1=O` (stereo not drawn), for which the IC50 in test [5] was 72.9 µM (inactive); in [6], > 66.6 µM (inactive); in test [7] it was 17.9 µM (active); in test [8], > 80 µM (inactive); in test [10] it was 16.2 µM (active). Besides, the figures for the CC50 in test [9] and in test [12] were 23.4 µM (active) and 16.1 µM (active), respectively. In test [11], the AC50 was 0.873 µM (active).

As to `Cc1nn(C)cc1S(=O)(=O)Nc1ccccc1Br`, the AC50 is 65.8 µM (active) in test [13] and 66.8 µM (active) in test [14].

For the compound `Cc1ccc(C)c(N2CCN(C(=O)c3cc4ccccn4n3)CC2)c1`, the EC50 is 72.9 µM (active) in test [15] and 33.7 µM (active) in test [16]. Also, the AC50 in [17] is 269 µM (active); in [18] it was 177 µM (active).
